From ChEMBL document CHEMBL1201862, “PubChem BioAssay data set” (2004)
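Where inhibition never reached the appropriate level, the endpoint shown equals the highest concentration tested. Otherwise, values were interpolated linearly from a five-concentration, 48-hour dose response in 96-well plates. GI50 = concentration required for 50% inhibition of growth.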 Activity calls are given as the source filed them. No stated cut-off is given here; in the data, active = GI50 up to about 1.1 µM and inactive = higher.

Columns and labels:
Assay in all cases: NCI tumour cell line growth inhibition, 48 h
A549 = system: A549
BT-549 = system: BT-549
CAKI-1 = system: CAKI-1
EKVX = system: EKVX
HCT-116 = system: HCT-116
HL-60 = system: HL-60
HOP-62 = system: HOP-62
Hs-578T = system: Hs-578T
K562 = system: K562
MDA-MB-435 = system: MDA-MB-435
MDA-N = system: MDA-N
NCI/ADR-RES = system: NCI/ADR-RES
OVCAR-3 = system: OVCAR-3
SK-MEL-28 = system: SK-MEL-28
SK-MEL-2 = system: SK-MEL-2
SK-MEL-5 = system: SK-MEL-5
SNB-19 = system: SNB-19
SR = system: SR
TK-10 = system: TK-10
UO-31 = system: UO-31

Measured: GI50

c1cc2n(n1)CCN2
inactive: A549 1050 µM | BT-549 4840 µM | CAKI-1 740 µM | EKVX 1770 µM | HCT-116 1950 µM | HL-60 238 µM | HOP-62 3720 µM | Hs-578T > 1470 µM | K562 2000 µM | MDA-MB-435 3940 µM | MDA-N 4680 µM | NCI/ADR-RES 561 µM | OVCAR-3 2280 µM | SK-MEL-28 7740 µM | SK-MEL-2 6460 µM | SK-MEL-5 847 µM | SNB-19 4030 µM | SR 733 µM | TK-10 > 1490 µM | UO-31 1320 µM

COC(=O)c1c(O)ccc2c1c1c(n2Cc2ccccn2)C(=O)c2ccccc2C1=O
inactive: A549 29.8 µM | BT-549 > 100 µM | CAKI-1 80.5 µM | EKVX 36.7 µM | HCT-116 79.8 µM | HL-60 62.2 µM | HOP-62 26.7 µM | Hs-578T 46.1 µM | K562 > 100 µM | MDA-MB-435 86.7 µM | MDA-N 97.5 µM | NCI/ADR-RES 41.3 µM | OVCAR-3 18.1 µM | SK-MEL-28 19.2 µM | SK-MEL-2 42.7 µM | SK-MEL-5 50.5 µM | SNB-19 86.5 µM | SR 22 µM | TK-10 99.8 µM | UO-31 87.9 µM
